Source: PubChem BioAssay AID2165 (The Scripps Research Institute Molecular Screening Center, 2009)
“And” between values parts separate entries of the source, which are not always exact repeats. Identical values can stand only once. The source made the active and inactive calls. No stated cut-off is given here; in the data, active means IC50 below about 9 µM; inactive means the rest.

Target: Tyrosine-protein kinase JAK2 (Homo sapiens) (UniProt O60674)
Assay: JAK2V617F project follow-up: kinase, reporter, cytotoxicity – HEL and Ba/F3 cells, late-stage follow-up (AID 2165)
Conditions: JAK2V617F panel: kinase, IRF1 reporter

Chain of Tyrosine-protein kinase JAK2 (Homo sapiens) (O60674 whole entry, looked up, change not shown): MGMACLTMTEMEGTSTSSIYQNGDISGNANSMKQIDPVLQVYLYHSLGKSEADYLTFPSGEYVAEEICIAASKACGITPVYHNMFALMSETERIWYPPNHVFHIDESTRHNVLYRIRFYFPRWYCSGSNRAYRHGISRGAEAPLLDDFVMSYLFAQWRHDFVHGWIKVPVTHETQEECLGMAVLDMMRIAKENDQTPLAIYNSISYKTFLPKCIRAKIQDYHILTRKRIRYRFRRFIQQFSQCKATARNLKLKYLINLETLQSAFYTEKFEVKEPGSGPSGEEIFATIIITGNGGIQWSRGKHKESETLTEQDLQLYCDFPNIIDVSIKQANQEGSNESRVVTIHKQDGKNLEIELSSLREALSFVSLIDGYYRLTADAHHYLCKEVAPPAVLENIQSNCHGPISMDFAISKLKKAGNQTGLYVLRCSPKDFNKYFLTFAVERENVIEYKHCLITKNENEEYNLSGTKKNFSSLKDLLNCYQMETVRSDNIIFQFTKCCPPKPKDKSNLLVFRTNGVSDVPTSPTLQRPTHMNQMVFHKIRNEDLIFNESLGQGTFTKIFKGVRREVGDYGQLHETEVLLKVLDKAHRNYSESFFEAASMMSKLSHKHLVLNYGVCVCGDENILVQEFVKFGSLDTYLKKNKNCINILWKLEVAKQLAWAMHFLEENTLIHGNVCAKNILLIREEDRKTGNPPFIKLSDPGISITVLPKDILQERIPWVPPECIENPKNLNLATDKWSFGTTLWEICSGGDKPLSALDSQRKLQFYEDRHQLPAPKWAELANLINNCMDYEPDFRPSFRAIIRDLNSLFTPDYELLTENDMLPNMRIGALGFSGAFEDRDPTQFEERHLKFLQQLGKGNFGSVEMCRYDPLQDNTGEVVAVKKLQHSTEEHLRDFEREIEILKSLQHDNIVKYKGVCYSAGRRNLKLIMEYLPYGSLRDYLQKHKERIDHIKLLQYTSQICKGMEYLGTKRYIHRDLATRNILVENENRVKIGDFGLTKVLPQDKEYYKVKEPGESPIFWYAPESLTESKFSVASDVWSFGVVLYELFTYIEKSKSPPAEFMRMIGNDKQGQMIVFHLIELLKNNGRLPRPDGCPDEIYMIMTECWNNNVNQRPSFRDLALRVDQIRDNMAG

Compound | IC50 (JAK2V617F) | IC50 (HEL, irf1 reporter) | IC50 (Ba/F3, irf1 reporter)
Cc1ccc(O)c(NC(=O)COc2ccc(Cl)cc2)c1 | 1.51 µM |  | 
Cc1cccc(OCC(=O)Nc2cccc(O)c2)c1 | > 40 µM (inactive) | > 40 µM (inactive) | 
O=C(COc1ccccc1)Nc1ncccn1 | > 40 µM (inactive) | > 40 µM (inactive) | 
CCCOc1ccc(C(=O)C(CN2CCOCC2)c2ccccc2)cc1 (stereo unspecified) |  | 11.4 µM | > 40 µM (inactive)
O=C(/C(=N/N=C/c1ccc(O)c(O)c1)c1ccccc1)c1ccccc1 |  | 9.46 µM | 6.61 µM
Cc1cccc(NC(=O)COc2cccc(C)c2)c1 | > 40 µM (inactive) |  | 
CCCn1c(CN(C)Cc2ccccc2)nc2c1c(=O)n(C)c(=O)n2C |  | > 40 µM (inactive) | 6.43 µM
Clc1ccc(-n2nnnc2Sc2ncnc3sccc23)cc1 |  | 23.3 µM | 1.19 µM
C#CCSc1nsc(SCC#C)c1C#N |  | > 40 µM (inactive) | 6.71 µM
N#C/C(=C\c1ccc(O)c(O)c1)C(=O)NCCCc1ccccc1 |  | 16.1 µM | 6.03 µM
COc1cccc(/C=N/NC(=O)c2[nH]c(C)c(C(=O)N/N=C/c3cccc(OC)c3O)c2C)c1O |  | 9.67 µM | 19.8 µM
O=C(NC1C=CS(=O)(=O)C1)c1sc2ccccc2c1Cl (stereo unspecified) |  | > 40 µM (inactive) | 8.98 µM
Cc1ccc(O)c(NC(=O)COc2ccc(I)cc2)c1 | 0.0268 µM |  | 
COc1ccc(Nc2ccc3c(c2)=NC2(CCCCC2)[N+]=3[O-])cc1 |  | 5.14 µM | 5.6 µM
O=C1C=CC(=O)N1CCNc1ncc(C(F)(F)F)cc1Cl |  | 9.81 µM | 0.699 µM
N#Cc1ccccc1NC(=O)COc1ccc2c(c1)OCO2 | > 40 µM (inactive) | > 40 µM (inactive) | 
Cc1ccc(O)c(NC(=O)COc2ccccc2C)c1 | > 40 µM (inactive) |  | 
Cc1[nH]c(=O)c(C(=O)C=Cc2ccc(I)cc2)c2c1CCCC2 | > 40 µM (inactive) | 11.2 µM | 0.82 µM
COc1ccc(N2CCc3c(C)nc4c(OC)cc(OC)cc4c32)c(OC)c1 |  |  | 7.67 µM
CC(C)c1cc(C=C(C#N)C(=O)NCCCc2ccccc2)cc(C(C)C)c1O | 3.97 µM | 1.15 µM | 0.54 µM
COc1cc2ncnc(NC3CCCCC3)c2cc1OC | > 40 µM (inactive) | 5.22 µM | 
CCCCCCN(C(=O)CCl)c1ccccc1 |  | 8.71 µM | 3.62 µM

Compound | IC50 (JAK2V617F) | IC50 (HEL, irf1 reporter) | IC50 (Ba/F3, irf1 reporter)
COc1ccccc1N(C(=O)CCl)c1cn(C(C)=O)c2ccccc12 |  | 9.3 µM | 2.17 µM
C/C(=C\c1ccccc1F)C(=O)c1c(C)cc(C)[nH]c1=O | > 40 µM (inactive) | 3.24 µM | > 40 µM (inactive)
COCCOc1cc2ncnc(Nc3cccc(C#Cc4ccc(-c5ccccc5)cc4)c3)c2cc1OCCOC | 3.81 µM | > 40 µM (inactive) | 
O=C(CCl)N=c1sccn1Cc1cccc2ccccc12 |  | 0.202 µM | 7.24 µM
COc1ccc(OC)c(NS(=O)(=O)c2ccc(SC)cc2)c1 |  | > 40 µM (inactive) | 22.9 µM
COc1ccc2nc(C)cc(Sc3nc4ccccc4s3)c2c1 |  | 11 µM | 2.98 µM
CN(C)C(=S)SSC(=S)N(C)C |  | 13.5 µM | 2.38 µM
O=C(CCl)N(C/C=C/c1ccccc1)c1ccc2c(c1)OCCO2 |  | 12 µM | 0.499 µM
Cc1cccc(NC(=O)c2ccc([N+](=O)[O-])o2)c1 |  | 10.5 µM | 6.3 µM
COc1cc2ncnc(Nc3cccc(Br)c3)c2cc1OC | 4.94 µM | 3.16 µM | 1.31 µM
Cc1nc2c(=O)n(C)c(=O)n(C)c2nc1Cl |  | 15.7 µM | 1.97 µM
Cc1cccc(CS(=O)(=O)c2nnc([C@H](Cc3ccccc3)NC(=O)OC(C)(C)C)o2)c1 |  | 11.6 µM | 1.39 µM
COCCOc1cc2nc[nH]c(=O)c2cc1OCCOC | > 40 µM (inactive) | > 40 µM (inactive) | 
Cc1ccc(O)c(NC(=O)COc2cccc(C)c2C)c1 | > 40 µM (inactive) |  | 
Cc1ccc(Cn2ccsc2=NC(=O)CCl)cc1 |  | 3.11 µM | 6.74 µM
CCC(C)Nc1ncnc2cc(OC)c(OC)cc12 (stereo unspecified) | 1.79 µM | > 40 µM (inactive) | 
O=C(/C=C/c1ccc(O)c(O)c1)c1ccc(S(=O)(=O)N2CCCCCC2)cc1 |  | > 40 µM (inactive) | 2.33 µM
O=S(=O)(c1cnc(Cl)c(Cl)c1)N1CCc2ccccc21 |  | > 40 µM (inactive) | 6.39 µM
O=C(OCn1ncc(Cl)c(Cl)c1=O)c1ccc(F)cc1 |  | 8.04 µM | 1.94 µM
O=C1/C(=C/c2ccc(O)c(O)c2)SC(=S)N1Nc1ccccc1 |  | 10.2 µM | 4.04 µM
COc1ccccc1/C=C/C(=O)c1c2c(c(C)[nH]c1=O)CCCC2 | 1.27 µM | 1.3 µM | > 40 µM (inactive)
COc1ccccc1C(C[N+](=O)[O-])c1c(N)n(C)c(=O)n(C)c1=O (stereo unspecified) |  | 17 µM | 6.82 µM

Compound | IC50 (JAK2V617F) | IC50 (HEL, irf1 reporter) | IC50 (Ba/F3, irf1 reporter)
CNC(=O)c1nnsc1S(=O)c1ccc(Cl)cc1 (stereo unspecified) |  | 12.1 µM | 0.199 µM
Oc1ccc(Cl)cc1N=Cc1sc2ccccc2c1Cl |  | 5.53 µM | 3.42 µM
Cc1ccc2nc(C)cc(Nc3ccc([N+](=O)[O-])cc3)c2c1 |  | 5.98 µM | 3.43 µM
CCS(=O)(=O)c1ccc(O)c(NC(=O)COc2cccc(C)c2)c1 | > 40 µM (inactive) |  | 
COc1cc2ncc(-c3ccccc3)nc2cc1OC | > 40 µM (inactive) | 0.69 µM | > 40 µM (inactive)
COC(=O)COc1cccc2c(=O)n(CC(=O)NCc3ccc(F)cc3)ccc12 |  | 7.33 µM | 16.3 µM
Cc1[nH]c(=O)c(C(=O)/C=C/c2ccccc2F)c2c1CCCC2 | 0.45 µM | 3.87 µM and 0.79 µM | 6.42 µM and 1.07 µM
[O-][N+]1=c2ccc(Nc3ccccc3)cc2=NC12CCCCC2 |  | 7.02 µM | 5.15 µM
CCOc1cc2ncnc(Nc3cccc(Br)c3)c2cc1OCC | 7.12 µM | 2.59 µM | 2.36 µM
N#CC(C#N)=Cc1ccc(O)c(O)c1 | > 40 µM (inactive) | > 40 µM (inactive) | 0.24 µM
O=C1C=C(Nc2ccc(O)cc2)C(=O)c2ccccc21 |  | 34.7 µM | 7.94 µM
Cc1ccc(O)c(NC(=O)COc2cc(C)c(Cl)c(C)c2)c1 | > 40 µM (inactive) |  | 
Cc1nn2c(NCc3ccccn3)c3c(nc2c1-c1ccccc1)CCC3 |  | 9.49 µM | 10.7 µM
N#C/C(=C\c1ccc(O)c(O)c1)C(=O)NCCCCc1ccccc1 | 0.76 µM | 3.31 µM | 0.25 µM
COc1ccc(-c2cnc3c(c2)CCC3(C#N)C#N)cc1 |  | 10.4 µM | 14.4 µM
CCCc1nc2ccccc2c(=O)n1/N=C/c1ccc(O)c(O)c1 |  | 13.1 µM | 2.13 µM
O=c1cnn([C@@H]2O[C@H](CO)[C@@H](O)[C@H]2O)c(=O)[nH]1 |  | > 40 µM (inactive) | > 40 µM (inactive)
Cc1[nH]c(=O)c(C(=O)/C=C/c2ccccc2)c2c1CCCC2 | 1.15 µM | 2.03 µM | > 40 µM (inactive)
Cc1ccc(Nc2nc(N)nc(CCl)n2)cc1 |  | 5.6 µM | 12.7 µM
COc1ccc(C2=Nn3c(nnc3C3CCCCC3)SC2)cc1OC |  | 13.3 µM | 8.93 µM
